Data published in ChEMBL document CHEMBL6087463, “Discovery of Novel 4,5,6,7-Tetrahydro-7H-pyrazolo[3,4-c]pyridin-7-one Derivatives as Orally Efficacious ATX Allosteric Inhibitors for the Treatment of Pulmonary Fibrosis” (J Med Chem, 2025).

How the values were obtained:
Autotaxin = Autotaxin (Homo sapiens, UniProt Q13822); experiment: Inhibition of human ATX using LPC16:0 as substrate preincubated with compound for 20 mins followed by substrate addition and measured after 1 hr by fluorescence based microplate analysis
[1] = target: Voltage-gated inwardly rectifying potassium channel KCNH2 (Homo sapiens, UniProt Q12809); experiment: Inhibition of hERG expressed in CHO cells by automated patch-clamp assay; assay type: toxicity, cell-based
Chain of Voltage-gated inwardly rectifying potassium channel KCNH2 (Q12809 whole entry): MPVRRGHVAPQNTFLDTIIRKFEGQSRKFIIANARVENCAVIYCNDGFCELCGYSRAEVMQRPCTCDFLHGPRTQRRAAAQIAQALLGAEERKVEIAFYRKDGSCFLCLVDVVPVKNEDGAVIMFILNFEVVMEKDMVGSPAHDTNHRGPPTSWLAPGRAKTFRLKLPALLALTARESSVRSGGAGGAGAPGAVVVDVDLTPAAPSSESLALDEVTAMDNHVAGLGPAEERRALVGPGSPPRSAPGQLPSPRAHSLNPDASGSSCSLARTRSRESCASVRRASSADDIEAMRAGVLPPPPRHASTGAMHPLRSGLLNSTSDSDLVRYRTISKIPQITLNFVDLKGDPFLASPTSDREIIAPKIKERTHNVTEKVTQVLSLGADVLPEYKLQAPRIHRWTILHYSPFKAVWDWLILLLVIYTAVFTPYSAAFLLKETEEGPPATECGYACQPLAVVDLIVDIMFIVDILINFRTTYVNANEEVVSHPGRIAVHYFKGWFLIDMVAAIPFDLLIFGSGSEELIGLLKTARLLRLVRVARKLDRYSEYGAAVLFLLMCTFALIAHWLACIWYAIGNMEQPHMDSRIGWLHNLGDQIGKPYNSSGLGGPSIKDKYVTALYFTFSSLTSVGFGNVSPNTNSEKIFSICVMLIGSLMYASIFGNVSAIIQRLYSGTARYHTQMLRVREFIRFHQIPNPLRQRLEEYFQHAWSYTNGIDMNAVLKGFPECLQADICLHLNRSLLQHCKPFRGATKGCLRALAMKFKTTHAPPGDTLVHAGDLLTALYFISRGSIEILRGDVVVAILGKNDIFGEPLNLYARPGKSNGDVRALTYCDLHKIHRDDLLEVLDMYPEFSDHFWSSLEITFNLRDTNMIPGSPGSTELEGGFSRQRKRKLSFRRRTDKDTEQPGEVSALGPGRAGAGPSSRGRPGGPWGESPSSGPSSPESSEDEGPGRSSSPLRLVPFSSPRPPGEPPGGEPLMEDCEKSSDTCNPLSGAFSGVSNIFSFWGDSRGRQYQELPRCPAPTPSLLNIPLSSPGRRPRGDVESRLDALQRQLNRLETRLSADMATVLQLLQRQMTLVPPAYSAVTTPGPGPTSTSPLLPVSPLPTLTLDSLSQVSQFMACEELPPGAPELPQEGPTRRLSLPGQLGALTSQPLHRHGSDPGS

| IC50 (Autotaxin) [µM] | SMILES | IC50 [1] [µM] |
| --- | --- | --- |
| 3.26 | CC(C)n1cc(-n2nc(C(=O)NN3CCCC(C(=O)O)C3)c3c2C(=O)N(c2ccccc2)CC3)cn1 (configuration not stated) |  |
|  | COCn1cc(-n2nc(C(=O)Nc3ccccc3C(=O)O)c3c2C(=O)N(c2ccccc2)CC3)cn1 | > 30 |
